# ChEMBL document CHEMBL1201862, “PubChem BioAssay data set” (2004)
# Several values for one entry are separate records, joined by “and”; a condition that tells them apart may be missing. Equal entries are not always repeated.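 Five compound concentrations were applied to cells in 96-well plates for 48 hours; endpoints were derived by simple linear interpolation of the resulting dose-response curve. At the GI50, growth is halved.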 Activity calls are given as the source filed them. Rule as the data show it: active = GI50 up to about 1.1 µM and inactive = higher.
# Experiments:
# Assay in all cases: DTP human tumour cell line panel, 48 h
# [1] = test system: HCT-116
# [2] = test system: SN12C
# [3] = test system: M19-MEL
# [4] = test system: TK-10
# [5] = test system: SF-268
# [6] = test system: SK-MEL-28
# [7] = test system: LXFL 529
# [8] = test system: SNB-19
# [9] = test system: COLO 205
# [10] = test system: HCT-15
# [11] = test system: UACC-257
# [12] = test system: ACHN
# [13] = test system: NCI-H522
# [14] = test system: KM-20L2
# [15] = test system: CAKI-1
# [16] = test system: SNB-75
# [17] = test system: LOX IMVI
# [18] = test system: SW-620
# [19] = test system: KM12
# [20] = test system: RPMI-8226
# [21] = test system: NCI-H460
# [22] = test system: NCI-H23
# [23] = test system: HL-60
# [24] = test system: SK-OV-3
# [25] = test system: 786-0
# [26] = test system: SR
# [27] = test system: K562
# [28] = test system: HT-29
# [29] = test system: DMS-273
# [30] = test system: SF-539
# [31] = test system: A498
# [32] = test system: U-251
# [33] = test system: IGROV-1
# [34] = test system: SK-MEL-2
# [35] = test system: HCC 2998
# [36] = test system: MOLT-4
# [37] = test system: HOP-62
# [38] = test system: DLD-1
# [39] = test system: OVCAR-5
# [40] = test system: DMS-114
# [41] = test system: SF-295
# [42] = test system: UO-31
# [43] = test system: SNB-78
# [44] = test system: M14
# [45] = test system: NCI-H226
# [46] = test system: OVCAR-4
# [47] = test system: UACC-62
# [48] = test system: RXF 393
# [49] = test system: HOP-92
# [50] = test system: A549
# [51] = test system: SK-MEL-5
# [52] = test system: CCRF-CEM
# [53] = test system: Malme-3M
# [54] = test system: XF498
# [55] = test system: HOP-18
# [56] = test system: OVCAR-3
# [57] = test system: EKVX
# [58] = test system: OVCAR-8
compound,measurement,setting,value
COC(=O)c1nn(C(=N)c2ccc(Cl)cc2)c2c1CCCCC2,GI50,[1],> 100 µM (inactive)
same,GI50,[2],> 100 µM (inactive)
same,GI50,[3],> 100 µM (inactive)
same,GI50,[4],> 100 µM (inactive)
same,GI50,[5],> 100 µM (inactive)
same,GI50,[6],> 100 µM (inactive)
same,GI50,[7],> 100 µM (inactive)
same,GI50,[8],> 100 µM (inactive)
same,GI50,[9],> 100 µM (inactive)
same,GI50,[10],> 100 µM
same,GI50,[11],> 100 µM (inactive)
same,GI50,[12],> 100 µM (inactive)
same,GI50,[13],> 100 µM (inactive)
same,GI50,[14],> 100 µM (inactive)
same,GI50,[15],> 100 µM (inactive)
same,GI50,[16],> 100 µM (inactive)
same,GI50,[17],> 100 µM (inactive)
same,GI50,[18],> 100 µM (inactive)
same,GI50,[19],> 100 µM (inactive)
same,GI50,[20],> 100 µM (inactive)
same,GI50,[21],> 100 µM (inactive)
same,GI50,[22],> 100 µM (inactive)
same,GI50,[23],> 100 µM (inactive)
same,GI50,[24],> 100 µM (inactive)
same,GI50,[25],> 100 µM (inactive)
same,GI50,[26],> 100 µM (inactive)
same,GI50,[27],> 100 µM (inactive)
same,GI50,[28],> 100 µM (inactive)
same,GI50,[29],> 100 µM (inactive)
same,GI50,[30],> 100 µM (inactive)
same,GI50,[31],> 100 µM (inactive)
same,GI50,[32],> 100 µM (inactive)
same,GI50,[33],> 100 µM (inactive)
same,GI50,[34],> 100 µM (inactive)
same,GI50,[35],> 100 µM (inactive)
same,GI50,[36],> 100 µM (inactive)
same,GI50,[37],> 100 µM (inactive)
same,GI50,[38],> 100 µM (inactive)
same,GI50,[39],> 100 µM (inactive)
same,GI50,[40],> 100 µM (inactive)
same,GI50,[41],> 100 µM (inactive)
same,GI50,[42],> 100 µM (inactive)
same,GI50,[43],> 100 µM (inactive)
same,GI50,[44],> 100 µM (inactive)
same,GI50,[45],> 100 µM (inactive)
same,GI50,[46],> 100 µM (inactive)
same,GI50,[47],> 100 µM (inactive)
same,GI50,[48],> 100 µM (inactive)
same,GI50,[49],> 100 µM (inactive)
same,GI50,[50],> 100 µM (inactive)
same,GI50,[51],> 100 µM (inactive)
same,GI50,[52],> 100 µM (inactive)
same,GI50,[53],> 100 µM (inactive)
C=CN1C(=O)OC(c2ccccc2)C1c1ccccc1 (stereo not given),GI50,[17],49.1 µM (inactive) and > 78.5 µM (inactive)
same,GI50,[18],40.7 µM (inactive) and > 31.6 µM (inactive)
same,GI50,[23],> 31.6 µM (inactive) and 45.2 µM (inactive)
same,GI50,[26],> 100 µM (inactive)
same,GI50,[27],> 31.6 µM (inactive) and 40.5 µM (inactive)
same,GI50,[29],57.4 µM (inactive) and > 31.6 µM (inactive)
same,GI50,[30],61.1 µM (inactive) and > 31.6 µM (inactive)
same,GI50,[32],54.7 µM (inactive) and > 31.6 µM (inactive)
same,GI50,[39],> 100 µM (inactive)
same,GI50,[41],> 100 µM (inactive) and > 99.3 µM (inactive)
same,GI50,[54],> 10 µM (inactive)
Clc1ccc(C(n2cc(Br)cn2)n2cc(Br)cn2)cc1,GI50,[2],16.8 µM (inactive)
same,GI50,[55],18.1 µM (inactive)
same,GI50,[3],16.9 µM (inactive)
same,GI50,[4],17.4 µM (inactive)
same,GI50,[5],16.4 µM (inactive)
same,GI50,[6],17.8 µM (inactive)
same,GI50,[7],14.9 µM (inactive)
same,GI50,[8],> 10 µM (inactive)
same,GI50,[9],16.1 µM (inactive)
same,GI50,[10],13.8 µM
same,GI50,[11],14.7 µM (inactive)
same,GI50,[12],14.5 µM (inactive)
same,GI50,[13],13.3 µM (inactive)
same,GI50,[56],14.1 µM (inactive)
same,GI50,[15],11.1 µM (inactive)
same,GI50,[16],> 10 µM (inactive)
same,GI50,[18],17 µM (inactive)
same,GI50,[19],13.5 µM (inactive)
same,GI50,[20],19.9 µM (inactive)
same,GI50,[21],16.1 µM (inactive)
same,GI50,[22],17.9 µM (inactive)
same,GI50,[23],17.8 µM (inactive)
same,GI50,[24],35.1 µM (inactive)
same,GI50,[25],14.1 µM (inactive)
same,GI50,[27],18 µM (inactive)
same,GI50,[28],13.2 µM (inactive)
same,GI50,[29],18.8 µM (inactive)
same,GI50,[30],> 10 µM (inactive)
same,GI50,[31],18.3 µM (inactive)
same,GI50,[32],16.3 µM (inactive)
same,GI50,[33],18.7 µM (inactive)
same,GI50,[34],16.8 µM (inactive)
same,GI50,[35],16.4 µM (inactive)
same,GI50,[36],16.5 µM (inactive)
same,GI50,[37],17.8 µM (inactive)
same,GI50,[39],16 µM (inactive)
same,GI50,[41],15 µM (inactive)
same,GI50,[57],19.7 µM (inactive)
same,GI50,[42],0.267 µM (active)
same,GI50,[43],19.7 µM (inactive)
same,GI50,[58],18.5 µM (inactive)
same,GI50,[44],16.8 µM (inactive)
same,GI50,[45],8.91 µM (inactive)
same,GI50,[46],12 µM (inactive)
same,GI50,[47],13.4 µM (inactive)
same,GI50,[48],14.5 µM (inactive)
same,GI50,[49],15 µM (inactive)
same,GI50,[50],14.7 µM (inactive)
same,GI50,[51],14 µM (inactive)
same,GI50,[52],21.3 µM (inactive)
same,GI50,[53],15.8 µM (inactive)
